Measured values as given in PubChem BioAssay AID256 (DTP/NCI, 2004).
Several values for one entry are separate records, joined by “and”; a condition that tells them apart may be missing. Equal values may be shown once. Toxic doses and inconclusive results are not listed. How the source made its calls: active means survival T/C of 150% or more; inactive means T/C below 125% in these data.

System: CD2F1 mice, L1210 leukemia ip, survival T/C
Assay: NCI In Vivo Anticancer Drug Screen. Data for tumor model L1210 Leukemia (intraperitoneal) in CD2F1 (CDF1) mice
Settings: higher = longer survival
Procedure, shortened: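 Compound-dosed mice with transplantable tumor versus matched vehicle controls; endpoint ratio T/C reported.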

[1] = endpoint: mean survival time, dose: 12.5 mg/kg/injection, schedule: Q01DX009 (ip), vehicle: saline with Tween-80
[2] = endpoint: mean survival time, dose: 25.0 mg/kg/injection, schedule: Q01DX009 (ip), vehicle: saline with Tween-80
[3] = endpoint: mean survival time, dose: 100.0 mg/kg/injection, schedule: Q04DX003 (ip), vehicle: saline with Tween-80
[4] = endpoint: mean survival time, dose: 200.0 mg/kg/injection, schedule: Q04DX003 (ip), vehicle: saline with Tween-80
[5] = endpoint: mean survival time, dose: 100.0 mg/kg/injection, schedule: Q01DX009 (ip), vehicle: saline with Tween-80
[6] = endpoint: mean survival time, dose: 200.0 mg/kg/injection, schedule: Q01DX009 (ip), vehicle: saline with Tween-80
[7] = endpoint: mean survival time, dose: 400.0 mg/kg/injection, schedule: Q01DX009 (ip), vehicle: saline with Tween-80

Measured: T/C

c1ccc(C(c2ccccc2)[P+](c2ccccc2)(c2ccccc2)c2ccccc2)cc1
inactive: endpoint: mean survival time, dose: 375.0 micrograms/kg/injection, schedule: Q01DX001 (ip), vehicle: gum acacia 92 % of control | endpoint: mean survival time, dose: 375.0 micrograms/kg/injection, schedule: Q01DX009 (ip), vehicle: gum acacia 106 % of control | endpoint: mean survival time, dose: 375.0 micrograms/kg/injection, schedule: Q04DX003 (ip), vehicle: gum acacia 95 % of control | endpoint: mean survival time, dose: 750.0 micrograms/kg/injection, schedule: Q01DX001 (ip), vehicle: gum acacia 103 % of control | endpoint: mean survival time, dose: 750.0 micrograms/kg/injection, schedule: Q01DX009 (ip), vehicle: gum acacia 101 % of control | endpoint: mean survival time, dose: 750.0 micrograms/kg/injection, schedule: Q04DX003 (ip), vehicle: gum acacia 101 % of control | endpoint: mean survival time, dose: 1500.0 micrograms/kg/injection, schedule: Q01DX001 (ip), vehicle: gum acacia 101 % of control | endpoint: mean survival time, dose: 1500.0 micrograms/kg/injection, schedule: Q01DX009 (ip), vehicle: gum acacia 108 % of control | endpoint: mean survival time, dose: 1500.0 micrograms/kg/injection, schedule: Q04DX003 (ip), vehicle: gum acacia 106 % of control | endpoint: mean survival time, dose: 3000.0 micrograms/kg/injection, schedule: Q01DX001 (ip), vehicle: gum acacia 98 % of control | endpoint: mean survival time, dose: 3000.0 micrograms/kg/injection, schedule: Q01DX009 (ip), vehicle: gum acacia 112 % of control | endpoint: mean survival time, dose: 3000.0 micrograms/kg/injection, schedule: Q04DX003 (ip), vehicle: gum acacia 108 % of control | endpoint: mean survival time, dose: 6000.0 micrograms/kg/injection, schedule: Q01DX001 (ip), vehicle: gum acacia 112 % of control | endpoint: mean survival time, dose: 6000.0 micrograms/kg/injection, schedule: Q01DX009 (ip), vehicle: gum acacia 92 % of control | endpoint: mean survival time, dose: 6000.0 micrograms/kg/injection, schedule: Q04DX003 (ip), vehicle: gum acacia 114 % of control

O=Cc1cccc2ccc3ccccc3c12
inactive: endpoint: median survival time, dose: 50.0 mg/kg/injection, schedule: Q04DX002 (ip), vehicle: saline with Tween-80 111 % of control | endpoint: median survival time, dose: 100.0 mg/kg/injection, schedule: Q04DX002 (ip), vehicle: saline with Tween-80 100 % of control | endpoint: median survival time, dose: 200.0 mg/kg/injection, schedule: Q04DX002 (ip), vehicle: saline with Tween-80 111 % of control

COc1cc2cc(c1Cl)N(C)C(=O)CC(OC(=O)C(C)N(C)C(=O)C(C)C)C1(C)OC1C(C)C1CC(O)(NC(=O)O1)C(OC)/C=C/C=C(C)C2 (configuration not stated)
inactive: endpoint: mean survival time, dose: 1.2 micrograms/kg/injection, schedule: Q01DX009 (ip), vehicle: saline + alcohol 109 % of control | endpoint: mean survival time, dose: 2.5 micrograms/kg/injection, schedule: Q01DX009 (ip), vehicle: saline + alcohol 113 % of control | endpoint: mean survival time, dose: 5.0 micrograms/kg/injection, schedule: Q01DX009 (ip), vehicle: saline + alcohol 116 % of control | endpoint: mean survival time, dose: 10.0 micrograms/kg/injection, schedule: Q01DX009 (ip), vehicle: saline + alcohol 119 % of control

CCCCOCCN1CCN(CCCN2c3ccccc3Sc3ccc(C(F)(F)F)cc32)CC1
inactive: endpoint: mean survival time, dose: 2.3 mg/kg/injection, schedule: Q01DX001 (ip), vehicle: saline 106 % of control | endpoint: mean survival time, dose: 3.5 mg/kg/injection, schedule: Q01DX001 (ip), vehicle: saline 100 % of control | endpoint: mean survival time, dose: 5.2 mg/kg/injection, schedule: Q01DX001 (ip), vehicle: saline 105 % of control | endpoint: mean survival time, dose: 7.2 mg/kg/injection, schedule: Q01DX001 (ip), vehicle: saline 112 % of control | endpoint: mean survival time, dose: 11.0 mg/kg/injection, schedule: Q01DX001 (ip), vehicle: saline 107 % of control | endpoint: mean survival time, dose: 16.0 mg/kg/injection, schedule: Q01DX001 (ip), vehicle: saline 104 % of control

CC(=O)N1CCC(Cc2ccccc2)CC1
inactive: endpoint: mean survival time, dose: 100.0 mg/kg/injection, schedule: Q04DX003 (ip), vehicle: saline 97 % of control | endpoint: mean survival time, dose: 200.0 mg/kg/injection, schedule: Q04DX003 (ip), vehicle: saline 94 % of control | endpoint: mean survival time, dose: 400.0 mg/kg/injection, schedule: Q04DX003 (ip), vehicle: saline 95 % of control

CCOc1ccc(C(/C(Cl)=N/O)C(Cl)(Cl)Cl)cc1 (configuration not stated)
inactive: endpoint: mean survival time, dose: 12.5 mg/kg/injection, schedule: Q01DX009 (ip), vehicle: acetone 94 % of control | endpoint: mean survival time, dose: 25.0 mg/kg/injection, schedule: Q01DX009 (ip), vehicle: acetone 103 % of control | endpoint: mean survival time, dose: 50.0 mg/kg/injection, schedule: Q01DX009 (ip), vehicle: acetone 108 % of control

COc1ccc2c(c1OC(C)=O)-c1cc(OC(C)=O)cc3c1C(C2)N(C(=O)CCl)CC3 (configuration not stated)
inactive: endpoint: mean survival time, dose: 25.0 mg/kg/injection, schedule: Q04DX003 (ip), vehicle: DMSO 101 % of control | endpoint: mean survival time, dose: 50.0 mg/kg/injection, schedule: Q04DX003 (ip), vehicle: DMSO 96 % of control | endpoint: mean survival time, dose: 100.0 mg/kg/injection, schedule: Q04DX003 (ip), vehicle: DMSO 101 % of control

Fc1ccc2c(c1)C(Br)c1ccccc1-2 (configuration not stated)
inactive: endpoint: mean survival time, dose: 6.25 mg/kg/injection, schedule: Q01DX009 (ip), vehicle: saline with Tween-80 96 % of control | [1] 96 % of control | [2] 105 % of control | [3] 108 % of control | [4] 88 % of control | endpoint: mean survival time, dose: 400.0 mg/kg/injection, schedule: Q04DX003 (ip), vehicle: saline with Tween-80 97 % of control

CC(C)C1CCC(C)C(C(CC(=O)c2ccccc2)c2ccccc2)C1=O (configuration not stated)
inactive: endpoint: mean survival time, dose: 100.0 mg/kg/injection, schedule: Q04DX002 (ip), vehicle: saline with Tween-80 97 % of control | endpoint: mean survival time, dose: 200.0 mg/kg/injection, schedule: Q04DX002 (ip), vehicle: saline with Tween-80 90 % of control | endpoint: mean survival time, dose: 400.0 mg/kg/injection, schedule: Q04DX002 (ip), vehicle: saline with Tween-80 101 % of control

O=C1c2ccccc2C(=O)c2c(O)c(Cc3ccccn3)cc(O)c21
inactive: endpoint: mean survival time, dose: 100.0 mg/kg/injection, schedule: Q01DX009 (ip), vehicle: saline sonified 96 % of control | endpoint: mean survival time, dose: 200.0 mg/kg/injection, schedule: Q01DX009 (ip), vehicle: saline sonified 94 % of control | endpoint: mean survival time, dose: 400.0 mg/kg/injection, schedule: Q01DX009 (ip), vehicle: saline sonified 98 % of control

Cc1cc2nc(Cc3ccccc3)[nH]c2cc1C
inactive: [1] 102 % of control | [2] 95 % of control | endpoint: mean survival time, dose: 50.0 mg/kg/injection, schedule: Q01DX009 (ip), vehicle: saline with Tween-80 91 % of control | [3] 94 % of control | [4] 86 % of control

CC1(C)N=C(N)N=C(N)N1c1cccc(CCCc2ccccc2)c1
inactive: endpoint: mean survival time, dose: 6.25 mg/kg/injection, schedule: Q01DX001 (ip), vehicle: saline 96 % of control

O=C(O)C1CCC(C(=O)O)CC1 (configuration not stated)
inactive: [5] 95 % of control | [6] 91 % of control | [7] 87 % of control

CC(=O)N(CCCCCCN(N=O)C(C)=O)N=O
inactive: endpoint: mean survival time, dose: 75.0 mg/kg/injection, schedule: Q01DX001 (ip), vehicle: saline 110 % of control | endpoint: mean survival time, dose: 150.0 mg/kg/injection, schedule: Q01DX001 (ip), vehicle: saline 122 % of control | endpoint: mean survival time, dose: 300.0 mg/kg/injection, schedule: Q01DX001 (ip), vehicle: saline 116 % of control

CC(Oc1ccc(Cl)cc1)C(/C=N/N=C(N)N)=N/N=C(N)N (configuration not stated)
inactive: endpoint: mean survival time, dose: 1.56 mg/kg/injection, schedule: Q01DX009 (ip), vehicle: saline 100 % of control | endpoint: mean survival time, dose: 3.13 mg/kg/injection, schedule: Q01DX009 (ip), vehicle: saline 98 % of control | endpoint: mean survival time, dose: 6.25 mg/kg/injection, schedule: Q01DX009 (ip), vehicle: saline 102 % of control | endpoint: mean survival time, dose: 12.5 mg/kg/injection, schedule: Q01DX009 (ip), vehicle: saline 100 % of control | endpoint: mean survival time, dose: 25.0 mg/kg/injection, schedule: Q01DX009 (ip), vehicle: saline 96 % of control and 101 % of control

Cc1cnc(Br)c(Br)c1
inactive: endpoint: mean survival time, dose: 100.0 mg/kg/injection, schedule: Q01DX001 (ip), vehicle: saline with Tween-80 101 % of control | [5] 110 % of control | endpoint: mean survival time, dose: 200.0 mg/kg/injection, schedule: Q01DX001 (ip), vehicle: saline with Tween-80 101 % of control | [6] 100 % of control | endpoint: mean survival time, dose: 400.0 mg/kg/injection, schedule: Q01DX001 (ip), vehicle: saline with Tween-80 103 % of control | [7] 100 % of control
